Assays:
[1] = In vitro drug release from drug-vinylpolysiloxane pills/articles (simulated gastric fluid or water); format: physicochemical; settings: for in vitro release from drug-VPS pills: SGF (isoniazid and rifampicin in water)
Protocol: Articles with a series of 30 pills were made so that there was 1 gram of doxycycline hyclate in 2 grams of vinylpolysiloxane. Pills were coated with either cellulose acetate butyrate (CAB) or with Eudragit RS PO. A control with no coatings was also made. The articles were immersed in simulated gastric fluid, and the cumulative release of doxycycline hyclate was measured for more than 26 days.
Thickness of coatings was tuned by increasing the spray volume.
Individual pills made of drug-VPS for doxycycline hyclate, isoniazid, ethambutol, pyrazinamide, moxifloxacin were used to evaluate long-term release kinetics in SGF. Pill formulations were incubated in a New Brunswick Innova 44 shaking incubator (Eppendorf) at 37° C. and 200 rpm in 50 mL of SGF for up to 28 days, with solution exchanges at specified time intervals. Drug concentrations were then analyzed using a High-Performance Liquid Chromatography (HPLC). Because of the lack of a validated HPLC method for evaluating isoniazid in SGF, water was used to study differences between isoniazid formulations. Three intact rifampicin devices were fabricated by loading 2 grams of drug into VPS pills. The devices were incubated in 500 mL of nanopure water for up to 26 days in a shaking incubator at 37° C. and 200 rpm, with media exchange at specified time intervals. […] The drug concentrations samples were then measured on an Infinite M200Pro (Tecan) reader (absorbance, 475 nm).
An Agilent 1260 Infinity II HPLC system (Agilent Technologies, Inc.) equipped with a Model 1260 quaternary pump, Model 1260 High Performance autosampler, Model 1260 thermostat, Model 1260 Infinity Thermostatted Column Compartment control module, and Model 1260 diode array detector was utilized. Data processing and analysis was performed using OpenLab CDS ChemStation (Agilent Technologies, Inc.). All solvents used were purchased from Sigma-Aldrich Corporation. For doxycycline hyclate, chromatographic isocratic separation was carried out on an Agilent 4.6×50 mm AdvanceBio RP-mAb SB-C8 analytical column with 3.5 μm particles, maintained at 55° C. The optimized mobile phase consisted of 20 mM dipotassium phosphate buffer and acetonitrile (pH 6 adjusted with triethylamine) [60:40 (v/v)] at a flow rate of 0.85 mL/min over a 4 min run time. The injection volume was 5 μl, and the selected ultraviolet (UV) detection wavelength was 293 nm.

[2] = pig, in vivo
[3] = reason water was used as release medium; cited from earlier work

Compound: CC[C@@H](CO)NCCN[C@@H](CC)CO [ethambutol]
- in vitro release from drug-VPS pills [1]: able to release

Compound: NC(=O)c1cnccn1 [pyrazinamide]
- in vitro release from drug-VPS pills [1]: able to release

Compound: doxycycline hyclate
- duration of drug release (cumulative release) ([1]; articles of 30 pills, 1 gram drug in 2 grams vinylpolysiloxane, simulated gastric fluid): more than 26 days
- release kinetic profile ([1]; formulations coated with Eudragit RS 100, SGF): linear kinetic profile with limited burst release
- duration drug detectable in serum [2]: at least 28 days
- duration of sustained drug release, non-zero concentrations in the blood [2]: at least 7 days
- time after which no drug was detectable in serum [2]: 3 ays
- time to detectable serum concentrations [2]: ≤ 15 min

Compound: CO[C@H]1/C=C/O[C@@]2(C)Oc3c(C)c(O)c4c(O)c(c(/C=N/N5CCN(C)CC5)c(O)c4c3C2=O)NC(=O)/C(C)=C\C=C\[C@H](C)[C@H](O)[C@@H](C)[C@@H](O)[C@@H](C)[C@H](OC(C)=O)[C@@H]1C [rifampicin]
- stability in acid [3]: rapidly degrades in acid
- duration of detectable serum concentrations [2]: for a week

Compound: NNC(=O)c1ccncc1 [isoniazid]
- in vitro release from drug-VPS pills [1]: able to release
